From patent US6703212B1, “Methods and kits for diagnosing Alzheimer's disease from a blood sample” (priority 1997, dated 2004)

System: PKC
Test: Fluorescence properties of fim-1 with liposomes, purified PKC and erythrocytes
Type: biochemical
Details: fim-1 500 nM, Ex 485 nm
Experimental: Liposomes prepared from lipidic extracts of brain and a commercial preparation of purified a PKC are used, then erythrocytes are added.
This preparation is incubated for 20 minutes at ambient temperature, in the presence of fim-1 (500 nM) in a PBS buffer (150 mM NaCl, 10 mM NaHPO4, 5 mM D-glucose, 500 μm CaCl2, pH 7.4.
After washing, centrifugation and resuspension in PBS 1/150, the fluorescence emission spectrum is recorded between […], with an excitation wavelength of 485 nm.
The spectrum obtained is standardized relative to the fluorescence intensity measured with the probe alone, then broken down into the 3 elementary gaussian distributions represented in FIG. 1. An emission maximum is noted at 518, 535 and 586 nm respectively. The interactions between fim-1 and the membrane lipids as well as the PKC is expressed by a slight shift of the spectrum between […] for the lipids and an increase in fluorescence between 510 and 530 nm, and beyond 570 nm for the PKC.

Row | SMILES | effect on fluorescence intensity of fim-1 (addition of inhibitor) | increase of quantal yield of fim-1 fluorescence (factor) (in the presence of activator)
1 | CN[C@@H]1C[C@H]2O[C@@](C)([C@@H]1OC)n1c3ccccc3c3c4c(c5c6ccccc6n2c5c31)C(=O)NC4 [staurosporine] | inhibition in the fluorescence intensity | 
2 | CCCCCCCCCCCCCC(=O)O[C@@H]1[C@@H](C)[C@@]2(O)[C@@H](C=C(CO)C[C@]3(O)C(=O)C(C)=C[C@@H]23)[C@@H]2C(C)(C)[C@]12OC(C)=O [phorbol ester, phorbol myristate acetate] |  | 5000
